Measured values from PubChem BioAssay (NCI).
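Five compound concentrations were applied to cells in 96-well plates for 48 hours; endpoints were derived by simple linear interpolation of the resulting dose-response curve. TGI denotes the concentration required for complete inhibition of growth.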

How the values were obtained:
Experiment in all cases: NCI anticancer screen, dose series, 48 h
786-0 renal = tested on: 786-0 renal
A498 renal = tested on: A498 renal
A549 NSCLC = tested on: A549 NSCLC
ACHN renal = tested on: ACHN renal
CAKI-1 renal = tested on: CAKI-1 renal
CCRF-CEM leukemia = tested on: CCRF-CEM leukemia
COLO 205 colon = tested on: COLO 205 colon
DLD-1 colon = tested on: DLD-1 colon
DMS 114 small cell lung = tested on: DMS 114 small cell lung
DMS 273 small cell lung = tested on: DMS 273 small cell lung
EKVX NSCLC = tested on: EKVX NSCLC
HCT-116 colon = tested on: HCT-116 colon
HCT-15 colon = tested on: HCT-15 colon
HOP-62 NSCLC = tested on: HOP-62 NSCLC
HT29 colon = tested on: HT29 colon
IGROV1 ovarian = tested on: IGROV1 ovarian
K-562 leukemia = tested on: K-562 leukemia
KM12 colon = tested on: KM12 colon
KM20L2 colon = tested on: KM20L2 colon
LOX IMVI melanoma = tested on: LOX IMVI melanoma
LXFL 529 NSCLC = tested on: LXFL 529 NSCLC
M14 melanoma = tested on: M14 melanoma
M19-MEL melanoma = tested on: M19-MEL melanoma
MALME-3M melanoma = tested on: MALME-3M melanoma
MOLT-4 leukemia = tested on: MOLT-4 leukemia
NCI-H226 lung = tested on: NCI-H226 lung
NCI-H23 lung = tested on: NCI-H23 lung
NCI-H460 lung = tested on: NCI-H460 lung
NCI-H522 lung = tested on: NCI-H522 lung
OVCAR-3 ovarian = tested on: OVCAR-3 ovarian
OVCAR-4 ovarian = tested on: OVCAR-4 ovarian
OVCAR-5 ovarian = tested on: OVCAR-5 ovarian
OVCAR-8 ovarian = tested on: OVCAR-8 ovarian
RPMI-8226 leukemia = tested on: RPMI-8226 leukemia
RXF 393 renal = tested on: RXF 393 renal
SF-268 CNS = tested on: SF-268 CNS
SF-295 CNS = tested on: SF-295 CNS
SF-539 CNS = tested on: SF-539 CNS
SK-MEL-2 melanoma = tested on: SK-MEL-2 melanoma
SK-MEL-28 melanoma = tested on: SK-MEL-28 melanoma
SK-MEL-5 melanoma = tested on: SK-MEL-5 melanoma
SK-OV-3 ovarian = tested on: SK-OV-3 ovarian
SN12C renal = tested on: SN12C renal
SNB-19 CNS = tested on: SNB-19 CNS
SNB-75 CNS = tested on: SNB-75 CNS
SNB-78 CNS = tested on: SNB-78 CNS
SW-620 colon = tested on: SW-620 colon
TK-10 renal = tested on: TK-10 renal
U251 CNS = tested on: U251 CNS
UACC-257 melanoma = tested on: UACC-257 melanoma
UACC-62 melanoma = tested on: UACC-62 melanoma
UO-31 renal = tested on: UO-31 renal
XF 498 CNS = tested on: XF 498 CNS
HL-60(TB) leukemia = tested on: HL-60(TB) leukemia
HOP-92 NSCLC = tested on: HOP-92 NSCLC
SR leukemia = tested on: SR leukemia

What does the source list for `NC(N)=NS(=O)(=O)c1ccc(NC(=O)c2cccc3cc4ccccc4nc23)cc1`?
TGI (786-0 renal): > 100 µM; TGI (A498 renal): > 100 µM; TGI (A549 NSCLC): > 100 µM; TGI (ACHN renal): > 100 µM; TGI (CAKI-1 renal): > 100 µM; TGI (CCRF-CEM leukemia): > 100 µM; TGI (COLO 205 colon): > 100 µM; TGI (DLD-1 colon): > 100 µM; TGI (DMS 114 small cell lung): > 100 µM; TGI (DMS 273 small cell lung): > 100 µM; TGI (EKVX NSCLC): > 100 µM; TGI (HCT-116 colon): > 100 µM; TGI (HCT-15 colon): > 100 µM; TGI (HOP-62 NSCLC): > 100 µM; TGI (HT29 colon): > 100 µM; TGI (IGROV1 ovarian): > 100 µM; TGI (K-562 leukemia): > 100 µM; TGI (KM12 colon): > 100 µM; TGI (KM20L2 colon): > 100 µM; TGI (LOX IMVI melanoma): > 100 µM; TGI (LXFL 529 NSCLC): > 100 µM; TGI (M14 melanoma): > 100 µM; TGI (M19-MEL melanoma): > 100 µM; TGI (MALME-3M melanoma): > 100 µM; TGI (MOLT-4 leukemia): > 100 µM; TGI (NCI-H226 lung): > 100 µM; TGI (NCI-H23 lung): > 100 µM; TGI (NCI-H460 lung): > 100 µM; TGI (NCI-H522 lung): > 100 µM; TGI (OVCAR-3 ovarian): > 100 µM; TGI (OVCAR-4 ovarian): 85.7 µM; TGI (OVCAR-5 ovarian): > 100 µM; TGI (OVCAR-8 ovarian): > 100 µM; TGI (RPMI-8226 leukemia): > 100 µM; TGI (RXF 393 renal): > 100 µM; TGI (SF-268 CNS): > 100 µM; TGI (SF-295 CNS): > 100 µM; TGI (SF-539 CNS): > 100 µM; TGI (SK-MEL-2 melanoma): > 100 µM; TGI (SK-MEL-28 melanoma): > 100 µM; TGI (SK-MEL-5 melanoma): > 100 µM; TGI (SK-OV-3 ovarian): > 100 µM; TGI (SN12C renal): > 100 µM; TGI (SNB-19 CNS): 31.8 µM; TGI (SNB-75 CNS): > 100 µM; TGI (SNB-78 CNS): > 100 µM; TGI (SW-620 colon): > 100 µM; TGI (TK-10 renal): > 100 µM; TGI (U251 CNS): > 100 µM; TGI (UACC-257 melanoma): > 100 µM; TGI (UACC-62 melanoma): > 100 µM; TGI (UO-31 renal): > 100 µM; TGI (XF 498 CNS): > 100 µM

What does the source list for `CC12C=C[C@]3(CC[C@@H]4[C@@](C)(CO)CCC[C@]4(C)C3CC1)C2` (stereo partly specified)?
TGI (786-0 renal): 30 µM; TGI (A498 renal): 37.7 µM; TGI (A549 NSCLC): 36.7 µM; TGI (ACHN renal): 32 µM; TGI (CAKI-1 renal): 26.2 µM; TGI (CCRF-CEM leukemia): 46.9 µM; TGI (COLO 205 colon): 30.6 µM; TGI (DMS 114 small cell lung): 31.7 µM; TGI (DMS 273 small cell lung): 29.6 µM; TGI (EKVX NSCLC): > 55.8 µM; TGI (HCT-116 colon): 31.9 µM; TGI (HCT-15 colon): 31.1 µM; TGI (HL-60(TB) leukemia): 36.8 µM; TGI (HOP-62 NSCLC): 19.9 µM; TGI (HOP-92 NSCLC): > 65 µM; TGI (HT29 colon): 32.2 µM; TGI (IGROV1 ovarian): 33 µM; TGI (K-562 leukemia): 37.5 µM; TGI (KM12 colon): > 64 µM; TGI (KM20L2 colon): 1.68 µM; TGI (LOX IMVI melanoma): 30.7 µM; TGI (LXFL 529 NSCLC): 30.8 µM; TGI (M14 melanoma): 29.9 µM; TGI (M19-MEL melanoma): 35.7 µM; TGI (MALME-3M melanoma): 47.6 µM; TGI (MOLT-4 leukemia): > 60.4 µM; TGI (NCI-H226 lung): 14.4 µM; TGI (NCI-H23 lung): 33.4 µM; TGI (NCI-H460 lung): 40.1 µM; TGI (NCI-H522 lung): 16.6 µM; TGI (OVCAR-3 ovarian): 33.2 µM; TGI (OVCAR-4 ovarian): 26.7 µM; TGI (OVCAR-5 ovarian): 10.6 µM; TGI (OVCAR-8 ovarian): 41.2 µM; TGI (RPMI-8226 leukemia): 41.6 µM; TGI (RXF 393 renal): 27.3 µM; TGI (SF-268 CNS): 35.4 µM; TGI (SF-295 CNS): 34.1 µM; TGI (SF-539 CNS): 30.5 µM; TGI (SK-MEL-2 melanoma): 43.2 µM; TGI (SK-MEL-28 melanoma): 35.6 µM; TGI (SK-OV-3 ovarian): 33.2 µM; TGI (SN12C renal): 34.4 µM; TGI (SNB-19 CNS): 36.2 µM; TGI (SNB-78 CNS): 36.7 µM; TGI (SR leukemia): 37 µM; TGI (SW-620 colon): 33.8 µM; TGI (TK-10 renal): 34.7 µM; TGI (U251 CNS): 30.9 µM; TGI (UACC-257 melanoma): 33.6 µM; TGI (UACC-62 melanoma): 29.3 µM; TGI (UO-31 renal): 32.2 µM; TGI (XF 498 CNS): 35.3 µM
